The experiment has as its target T1, human enzyme NAMPT (full length) (Homo sapiens, UniProt P43490).
T1 construct: human enzyme NAMPT (full length)
Kind of experiment: NMN fluorescence biochemical assay (stimulation of NMN synthesis by NAMPT). The note with it: for EC50: concentration giving half-maximal activation, read-out: Enzymatic EC50; for Enzymatic Emax: fold change of maximal activation compared to DMSO. The method in brief: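 Full-length human NAMPT (100 nM) was preincubated 15 min at 37 °C with compound in 50 mM Tris-HCl pH 7.5, 10 mM MgCl2, 2 mM DTT, then reacted 1 h at 37 °C with 50 μM NAM, 100 μM PRPP, 4 mM ATP (stated solution concentrations). NMN was derivatised with acetophenone/KOH then formic acid and read at Ex/Em 382/445 nm; EC50 and Emax (fold over DMSO) reported.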

Where [1] appears, read: NMN synthesis by purified human NAMPT (100 nM).
The mark [2] stands for this setting: NMN fluorescence assay, purified human NAMPT 100 nM.

From patent US20260078130A1, “NAMPT MODULATORS, PREPARATIONS, AND USES THEREOF” (SIRONAX LTD., priority 2022, published 2026) come the findings set out here.

The term EC50 denotes the concentration giving half of the maximal effect.

Where two headings read alike, the source gives them in different places.

T1 sequence (P43490 whole entry): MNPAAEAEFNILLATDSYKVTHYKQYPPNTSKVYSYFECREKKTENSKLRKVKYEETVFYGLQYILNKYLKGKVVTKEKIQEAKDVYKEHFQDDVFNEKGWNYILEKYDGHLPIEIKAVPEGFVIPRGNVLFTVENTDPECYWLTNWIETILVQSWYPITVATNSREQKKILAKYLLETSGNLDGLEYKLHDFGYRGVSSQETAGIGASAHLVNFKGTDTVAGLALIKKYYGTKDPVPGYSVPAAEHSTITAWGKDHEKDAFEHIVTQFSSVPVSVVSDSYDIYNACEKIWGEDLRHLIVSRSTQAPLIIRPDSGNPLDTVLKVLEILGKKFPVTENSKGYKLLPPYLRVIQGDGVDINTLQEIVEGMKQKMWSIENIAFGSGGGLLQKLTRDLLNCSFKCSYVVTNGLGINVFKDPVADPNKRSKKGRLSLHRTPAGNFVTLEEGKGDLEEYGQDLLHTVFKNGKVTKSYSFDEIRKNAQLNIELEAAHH

Regarding `O=C1c2ccccc2C(C(F)(F)c2ccccc2)N1Cc1ccc2[nH]c(=O)oc2c1` (centres unmarked) [Compound 306, 6-((1-(difluoro(phenyl)methyl)-3-oxoisoindolin-2-yl)methyl)benzo[d]oxazol-2(3H)-one], the “Enzymatic Emax” value is “C (2≥C)”. In addition, under setting [1], the EC50 is at least 5 µM.
For the molecule `O=C1c2ccccc2C(Cc2ncccc2Br)N1Cc1ccc(O)cc1` (centres unmarked) [Compound 429, 3-((3-bromopyridin-2-yl)methyl)-2-(4-hydroxybenzyl)isoindolin-1-one], the “Enzymatic Emax” value is on record as “C (2≥C)”. In addition, the EC50 under setting [2] is under 0.5 µM.
`CC1c2c(cccc2C2CC2)C(=O)N1Cc1ccc2[nH]c(=O)oc2c1` (centres unmarked) [Compound 245, 6-((4-cyclopropyl-3-methyl-1-oxoisoindolin-2-yl)methyl)benzo[d]oxazol-2(3H)-one]: the “Enzymatic Emax” value was “B (3≥B>2)”. Moreover, under setting [1], the EC50 is at least 5 µM.
In the same order, the values of `CC1c2c(Br)cccc2C(=O)N1Cc1ccc2[nH]c(=O)oc2c1` (centres unmarked) [Compound 247, 6-((4-bromo-3-methyl-1-oxoisoindolin-2-yl)methyl)benzo[d]oxazol-2(3H)-one] are “B (3≥B>2)” and at least 5 µM.
In the same order, the values of `O=C1c2ccccc2C(Cc2ncccc2Br)N1Cc1ccn2c(=O)[nH]nc2c1` (centres unmarked) [Compound 281, 7-((1-((3-bromopyridin-2-yl)methyl)-3-oxoisoindolin-2-yl)methyl)-[1,2,4]triazolo[4,3-a]pyridin-3(2H)-one] are “C (2≥C)” and at least 5 µM.
In the same order, the values of `O=C1c2ccccc2C(Cc2cccnc2F)N1Cc1ccc2[nH]c(=O)oc2c1` (centres unmarked) [Compound 183, 6-((1-((2-fluoropyridin-3-yl)methyl)-3-oxoisoindolin-2-yl)methyl)benzo[d]oxazol-2(3H)-one] are “B (3≥B>2)” and 0.5 to 5 µM.
For `N#Cc1nccc(Cl)c1CC1c2cc(C3COC3)ccc2C(=O)N1Cc1ccc2[nH]c(=O)oc2c1` (centres unmarked) [Compound 285, 4-chloro-3-((6-(oxetan-3-yl)-3-oxo-2-((2-oxo-2,3-dihydrobenzo[d]oxazol-6-yl)methyl)isoindolin-1-yl)methyl)picolinonitrile], the “Enzymatic Emax” value is reported as “B (3≥B>2)”. Under setting [1], the EC50 is under 0.5 µM.
Regarding `CN(C)C1CN(c2ccc3c(c2)C(Cc2c(Cl)cnn2C)N(CC2CC4(CNC(=O)O4)C2)C3=O)C1` (centres unmarked) [Compound 497, 2-((3-((4-chloro-1-methyl-1H-pyrazol-5-yl)methyl)-5-(3-(dimethylamino)azetidin-1-yl)-1-oxoisoindolin-2-yl)methyl)-5-oxa-7-azaspiro[3.4]octan-6-one], the “Enzymatic Emax” value was “B (3≥B>2)”. In addition, the EC50 under setting [2] was under 0.5 µM.
With `Cn1ncc(Cl)c1CC1c2ccccc2C(=O)N1CC1CC2(COC2)C1` (centres unmarked) [Compound 564, 2-((2-oxaspiro[3.3]heptan-6-yl)methyl)-3-((4-chloro-1-methyl-1H-pyrazol-5-yl)methyl)isoindolin-1-one], the “Enzymatic Emax” value was “C (2≥C)”. In addition, under setting [2], the EC50 is at least 5 µM.
In the same order, the values of `O=C1c2ccccc2C(Cc2ncccc2Br)N1Cc1ccc2[nH]c(O)nc2c1` (centres unmarked) [Compound 367, 3-((3-bromopyridin-2-yl)methyl)-2-((2-hydroxy-1H-benzo[d]imidazol-5-yl)methyl)isoindolin-1-one] are “C (2≥C)” and at least 5 µM.
In the same order, the values of `[2H]C([2H])(C1CC2(CNC(=O)O2)C1)N1C(=O)c2ccccc2C1Cc1c(Cl)cnn1C` (centres unmarked) [Compound 643, 2-((1-((4-chloro-1-methyl-1H-pyrazol-5-yl)methyl)-3-oxoisoindolin-2-yl)methyl-d)-5-oxa-7-azaspiro[3.4]octan-6-one] are “B (3≥B>2)” and 0.5 to 5 µM.
Take `O=C1c2ccccc2C(Cc2ncccc2Br)N1Cc1ccc2c(c1)nnn2O` (centres unmarked) [Compound 288, 3-((3-bromopyridin-2-yl)methyl)-2-((1-hydroxy-1H-benzo[d][1,2,3]triazol-5-yl)methyl) isoindolin-1-one]: the “Enzymatic Emax” value was “C (2≥C)”. For the same molecule, the EC50 under setting [1] was at least 5 µM.
In the same order, the values of `Nc1nnc2cc(CN3C(=O)c4ccccc4C3Cc3ncccc3Br)ccn12` (centres unmarked) [Compound 269, 2-((3-amino-[1,2,4]triazolo[4,3-a]pyridin-7-yl)methyl)-3-((3-bromopyridin-2-yl)methyl) isoindolin-1-one] are “B (3≥B>2)” and at least 5 µM.
In the same order, the values of `NC(=O)c1cccc(CC2c3ccccc3C(=O)N2Cc2ccc3[nH]c(=O)oc3c2)c1` (centres unmarked) [Compound 264, 3-((3-oxo-2-((2-oxo-2,3-dihydrobenzo[d]oxazol-6-yl)methyl)isoindolin-1-yl)methyl) benzamide] are “B (3≥B>2)” and 0.5 to 5 µM.
In the same order, the values of `CC1c2cccc(-c3cccnc3)c2C(=O)N1Cc1ccc2[nH]c(=O)oc2c1` (centres unmarked) [Compound 244, 6-((1-methyl-3-oxo-4-(pyridin-3-yl)isoindolin-2-yl)methyl)benzo[d]oxazol-2(3H)-one] are “B (3≥B>2)” and at least 5 µM.
Consider `O=C1c2ccccc2C(Cc2ncccc2Br)N1Cc1cc[nH]c(=O)c1` (centres unmarked) [Compound 266, 3-((3-bromopyridin-2-yl)methyl)-2-((2-oxo-1,2-dihydropyridin-4-yl)methyl)isoindolin-1-one], for which the “Enzymatic Emax” value is on record as “A (A>3)”. Besides, the EC50 under setting [1] is at least 5 µM.
For the molecule `COc1cccc2c1C(=O)N(CC1CC3(CNC(=O)O3)C1)C2Cc1c(Cl)cnn1C` (centres unmarked) [Compound 433, 2-((1-((4-chloro-1-methyl-1H-pyrazol-5-yl)methyl)-4-methoxy-3-oxoisoindolin-2-yl)methyl)-5-oxa-7-azaspiro[3.4]octan-6-one], the “Enzymatic Emax” value is “B (3≥B>2)”. In addition, the EC50 under setting [2] lay in the range of 0.5 to 5 µM.
In the same order, the values of `COc1ccc(CN2C(=O)c3ccccc3C2Cc2c(Cl)cnn2C)nc1` (centres unmarked) [Compound 529, 3-((4-chloro-1-methyl-1H-pyrazol-5-yl)methyl)-2-((5-methoxypyridin-2-yl)methyl)isoindolin-1-one] are “C (2≥C)” and 0.5 to 5 µM.
Take `O=C1c2cccc(Nc3ccccc3)c2C(=O)N1Cc1ccc(O)cc1` [Compound 17, 2-(4-hydroxybenzyl)-4-(phenylamino)isoindoline-1,3-dione]: the “Enzymatic Emax” value is reported as “B (3≥B>2)”. Further, the EC50 under setting [1] was 0.5 to 5 µM.
In the case of `O=C1c2ccccc2C(CC2CCCC2)N1Cc1ccc2[nH]c(=O)oc2c1` (centres unmarked) [Compound 252, 6-((1-(cyclopentylmethyl)-3-oxoisoindolin-2-yl)methyl)benzo[d]oxazol-2(3H)-one], the “Enzymatic Emax” value is reported as “B (3≥B>2)”. Besides, the EC50 under setting [1] lay in the range of 0.5 to 5 µM.
In the same order, the values of `O=C1c2ccccc2C(Cc2cc(Cl)ccn2)N1Cc1ccc2[nH]c(=O)oc2c1` (centres unmarked) [Compound 220, 6-((1-((4-chloropyridin-2-yl)methyl)-3-oxoisoindolin-2-yl)methyl)benzo[d]oxazol-2(3H)-one] are “B (3≥B>2)” and 0.5 to 5 µM.
Take `O=C1c2ccccc2C(Cc2ccc(Br)cn2)N1Cc1ccc2[nH]c(=O)oc2c1` (centres unmarked) [Compound 262, 6-((1-((5-bromopyridin-2-yl)methyl)-3-oxoisoindolin-2-yl)methyl)benzo[d]oxazol-2(3H)-one]: the “Enzymatic Emax” value is “A (A>3)”. In addition, the EC50 under setting [1] is 0.5 to 5 µM.
